# Publication PMC9607282 (Pharmaceutics, 2022)
# Like-named read-outs stand apart in the source and are kept apart here.
# How the values were obtained:
# [1] = Pharmacokinetics in plasma and PELF of pigs infected with G. parasuis H78 after intramuscular injection; type: in vivo; settings: for T 1/2λ: infected group, ADP/SMZ injection 5/25 mg/kg b.w. i.m., n = 6; for Tmax: pig, im
# Procedure: (§1) Twenty-four pigs were randomly divided into 4 groups with 3 healthy groups and 1 infected group. […] The infected group was infected with G. parasuis H78 for 3 days.
# (§2) Add 3 mL of a mixture of dichloromethane and acetonitrile, and vortex centrifuge for 5 min at 10,000 rpm for 10 min. Remove the supernatant into a 10 mL centrifuge tube. Add 3 mL of dichloromethane and acetonitrile to the residue. Extract once again as described above. Combine the supernatant twice, and dissolve the residue with 1 mL of the initial mobile phase. Vortex to mix. Add 1 mL of n-hexane, remove the n-hexane layer (upper layer) to achieve the purpose of degreasing, and then use a 0.22-μm filter membrane to obtain a sample purification solution.
# (§3) A C18 reverse phase column (250 mm × 4.6 mm, i.d., 5 µm, Agilent, Santa Clara, CA, USA) was used for HPLC, which was executed at a detection wavelength of 270 nm at 25 °C. The mobile phase comprised 0.1% trifluoroacetic acid (phase A) and 100% methanol (phase C) with a mobile phase flow rate of 1 mL/min.
# (§4) The urea dilution method was used to determine the volume of PELF as described previously. The concentration of urea and PELF were determined by the urease-glutamate dehydrogenase enzymatic method with an automatic biochemical analyzer (SYNCHRON CX4 PRO; Beckman, Brea, CA, USA) at the National Reference Laboratory of Veterinary Drug Residues (Wuhan, China).
# G. parasuis H78 [2] = assay: PK-PD integration, sigmoid Emax model on ex vivo time killing in PELF; type: cell-based, Glaesserella parasuis; settings: ADP/SMZ injection 5/25 mg/kg b.w. i.m.
# Procedure: The association between antimicrobial efficiency and the ex vivo PK-PD parameters of AUC0−24h/MIC ratios was simulated by using the model of Emax inhibitory Sigmoid.
# G. parasuis H78 [3] = assay: Post-antimicrobial effect (PAE); type: cell-based, Glaesserella parasuis
# Procedure: (§5) The MIC and MBC of G. parasuis H78 in broth and pulmonary epithelial lining fluid (PELF) were determined by the broth dilution method according to the CLSI M07-A9 standard with some modifications. The MPC of G. parasuis H78 in broth was determined by the agar dilution method recommended by CLSI M07-A9. The post-antimicrobial effect (PAE) was determined by the method of bacterial and drug removal after incubation.
# [4] = Pharmacokinetics in plasma and PELF of healthy pigs after intramuscular injection; type: in vivo; settings: for T 1/2λ / AUC(0-t) / Cmax / Tmax / MRT last: n = 6; for AUC(0-t) / Cmax / Tmax / MRT last: pig, im; for AUC(0-t): AUC 24h; for MRT last: read-out: MRT 24h
# Procedure: as §1, §2, §3, §4
# [5] = six-month-old castrated boar ref 22; cited from earlier work
# [6] = Adverse reactions after single intramuscular injection in pigs; settings: single dose ADP 5, SMZ 25, ADP/SMZ 5/25 mg/kg b.w.
# Procedure: as §1
# A single dose of 5 mg/kg b.w., 25 mg/kg b.w., and 5/25 mg/kg b.w.
# G. parasuis H78 [7] = assay: Mutant prevention concentration (MPC), agar dilution; type: cell-based, Glaesserella parasuis
# Procedure: as §5
# E. coli (ATCC 25922) = assay: MIC quality control, agar dilution (CLSI M07-A9); type: cell-based; settings: Escherichia coli, ATCC25922, quality control strain
# Excerpt: E. coli (ATCC 25922) and chloramphenicol were used as quality control, and the experimental results were only valid when the MIC was within the quality control range.
# [8] = PELF, PELF, healthy group, ADP/SMZ injection 5/25 mg/kg b.w. i.m.
# [9] = PELF, PELF, healthy pigs, single drug i.m.: ADP 5 mg/kg b.w., SMZ 25 mg/kg b.w.
# [10] = plasma, plasma, healthy group, ADP/SMZ injection 5/25 mg/kg b.w. i.m.
# [11] = plasma, plasma, healthy pigs, single drug i.m.: ADP 5 mg/kg b.w., SMZ 25 mg/kg b.w.
smiles,measurement,setting,value
"COc1cc(Cc2cnc(N)nc2N)cc(OC)c1N(C)C [ADP, Aditoprim]",T 1/2λ,[1]; PELF,6.48 ± 0.62 h
same,Tmax,[1]; PELF,1.96 ± 0.05 h
same,Tmax,[1]; plasma,2 h
same,T 1/2λ,[1]; plasma,8.45 ± 0.61 h
same,(AUC24h/MIC)ex (E = 0),G. parasuis H78 [2]; healthy group,32.25 h
same,(AUC24h/MIC)ex (E = −3),G. parasuis H78 [2]; healthy group,113.28 h
same,(AUC24h/MIC)ex (E = −4),G. parasuis H78 [2]; healthy group,221.41 h
same,E 0,G. parasuis H78 [2]; healthy group,−4.78 Log10CFU/mL
same,EC 50 (AUC0−24h/MIC giving 50% of Emax),G. parasuis H78 [2]; healthy group,56.4 h
same,Emax,G. parasuis H78 [2]; healthy group,2.07 Log10CFU/mL
same,Emax − E0,G. parasuis H78 [2]; healthy group,6.85 Log10CFU/mL
same,N (Hill coefficient),G. parasuis H78 [2]; healthy group,1.5
same,(AUC24h/MIC)ex (E = 0),G. parasuis H78 [2]; infected group,27.19 h
same,(AUC24h/MIC)ex (E = −3),G. parasuis H78 [2]; infected group,102.29 h
same,(AUC24h/MIC)ex (E = −4),G. parasuis H78 [2]; infected group,204.17 h
same,E 0,G. parasuis H78 [2]; infected group,−4.8 Log10CFU/mL
same,EC 50 (AUC0−24h/MIC giving 50% of Emax),G. parasuis H78 [2]; infected group,48.06 h
same,Emax,G. parasuis H78 [2]; infected group,2.15 Log10CFU/mL
same,Emax − E0,G. parasuis H78 [2]; infected group,6.95 Log10CFU/mL
same,N (Hill coefficient),G. parasuis H78 [2]; infected group,1.41
same,PAE,"G. parasuis H78 [3]; 1 × MIC, exposure 1 h",0.02 h
same,PAE,"G. parasuis H78 [3]; 1 × MIC, exposure 2 h",0.40 h
same,PAE,"G. parasuis H78 [3]; 2 × MIC, exposure 1 h",0.11 h
same,PAE,"G. parasuis H78 [3]; 2 × MIC, exposure 2 h",0.43 h
same,PAE,"G. parasuis H78 [3]; 4 × MIC, exposure 1 h",0.20 h
same,PAE,"G. parasuis H78 [3]; 4 × MIC, exposure 2 h",0.48 h
same,concentration in PELF after 36 h,"[4]; LOD 0.05 µg/mL, HPLC",below LOD
same,concentration in plasma after 24 h,"[4]; LOD 0.05 µg/mL, HPLC",below LOD
same,T 1/2λ,"[4]; PELF, healthy group, ADP/SMZ injection 5/25 mg/kg b.w. i.m.",6.05 ± 0.20 h
same,T 1/2λ,"[4]; PELF, healthy pigs, single drug i.m.: ADP 5 mg/kg b.w., SMZ 25 mg/kg b.w.",6.42 ± 0.43 h
same,AUC(0-t),[4]; [8],49100 ± 520 ng·h/mL
same,AUC(0-t),[4]; [9],44800 ± 540 ng·h/mL
same,Cmax,[4]; [8],6780 ± 110 ng/mL
same,Tmax,[4]; [8],1.95 ± 0.06 h
same,MRT last,[4]; [8],6.88 ± 0.11 h
same,Cmax,[4]; [9],6880 ± 140 ng/mL
same,Tmax,[4]; [9],2 h
same,MRT last,[4]; [9],6.43 ± 0.09 h
same,AUC(0-t),[4]; [10],7710 ± 260 ng·h/mL
same,AUC(0-t),[4]; [11],7590 ± 240 ng·h/mL
same,Cmax,[4]; [10],870 ± 90 ng/mL
same,Tmax,[4]; [10],2 h
same,MRT last,[4]; [10],7.76 ± 0.26 h
same,Cmax,[4]; [11],920 ± 80 ng/mL
same,Tmax,[4]; [11],1 h
same,MRT last,[4]; [11],7.63 ± 0.27 h
same,T 1/2λ,"[4]; plasma, healthy group, ADP/SMZ injection 5/25 mg/kg b.w. i.m.",7.97 ± 0.81 h
same,T 1/2λ,"[4]; plasma, healthy pigs, single drug i.m.: ADP 5 mg/kg b.w., SMZ 25 mg/kg b.w.",8.8 ± 0.53 h
same,apparent distribution volume,[5],> 1.4 L/kg
same,elimination half-life,[5],> 2.25 h
same,adverse reactions after intramuscular injection,[6],No serious adverse reactions
same,MPC,G. parasuis H78 [7],20 µg/mL
"Cc1cc(NS(=O)(=O)c2ccc(N)cc2)no1 [SMZ, Sulfamethoxazole, reference compound]",E 0,G. parasuis H78 [2]; healthy group,−4.4 Log10CFU/mL
same,Emax,G. parasuis H78 [2]; healthy group,2.3 Log10CFU/mL
same,Emax − E0,G. parasuis H78 [2]; healthy group,6.7 Log10CFU/mL
same,N (Hill coefficient),G. parasuis H78 [2]; healthy group,1.56
same,E 0,G. parasuis H78 [2]; infected group,−4.55 Log10CFU/mL
same,Emax,G. parasuis H78 [2]; infected group,2.36 Log10CFU/mL
same,N (Hill coefficient),G. parasuis H78 [2]; infected group,1.52
same,adverse reactions after intramuscular injection,[6],No serious adverse reactions
"COc1cc(Cc2cnc(N)nc2N)cc(OC)c1OC [TMP, trimethoprim, reference compound]",apparent distribution volume,[5],1.4 L/kg
same,elimination half-life,[5],2.25 h
O=C(N[C@H](CO)[C@H](O)c1ccc([N+](=O)[O-])cc1)C(Cl)Cl [chloramphenicol],MIC,E. coli (ATCC 25922),4 µg/mL
